{"source": "patent US20080226653A1", "about": "“Inhibition of Platelet Aggregation” (THE UNIVERSITY OF MANITOBA, priority 2006, published 2008)", "origin": "cited, not measured here", "settings": "clinical trials (Patrono et al., 1993)"}
{"molecule": "CC(=O)Oc1ccccc1C(=O)O", "note": "[aspirin, Aspirin]", "values": [{"measurement": "efficacy in preventing chronic complications in diabetic patients", "value": "only limited efficacy"}]}
